# Laboratory results taken from US9771405B2, “Nucleic acids encoding for chimeric natriuretic polypeptides with unique pharmacologic profiles” (Mayo Foundation for Medical Education and Research, priority 2008, dated 2017).
# Experiment: BAA-NP, BUA-NP or human BNP infusion in anesthetized dogs: renal, hemodynamic and neurohumoral measurements
# Assay type: in vivo, dog
# Conditions: for net renal generation of cGMP / plasma cGMP / urinary cGMP excretion / urinary sodium excretion / urine flow: 30 and 60 minutes of infusion vs. pre-infusion; for plasma ANP immunoreactivity / plasma CNP immunoreactivity: RIA; for glomerular filtration rate: inulin clearance; for mean arterial pressure / renal perfusion pressure: BNP at equimolar dose; for renal perfusion pressure: mean arterial pressure minus right atrial pressure
# Description: BAA-NP and BUA-NP were reconstituted in normal saline and were infused at 1 mL/minute. Dogs were maintained on a Na^+-controlled diet (Hill's i/d® canine diet, Hill's Pet Nutrition, Inc., Topeka, Kans.). In the evening before the experiment, the dog was fasted with ad lib access to water and was given lithium carbonate 300 mg orally for assessment of renal tubular function on the next day.
# On the day of the experiment, the dog was anesthetized with pentobarbital sodium (induction 6-20 mg/kg i.v., maintenance 5-15 mg/kg/h i.v.) and fentanyl (0.04-0.12 mg/kg i.v., maintenance 0.04-0.18 mg/kg/h), and was intubated and mechanically ventilated (Harvard Apparatus, Holliston, Mass.) with 3 L/minute of 02 (tidal volume 15 mL/kg, 12 cycles/minute). The femoral artery was cannulated for blood pressure monitoring and for blood sampling. The femoral vein was cannulated for infusion of inulin and normal saline. The saphenous vein was cannulated for polypeptide infusion. A balloon-tipped thermodilution catheter (Edwards Lifesciences, Irvine, Calif.) was used for monitoring hemodynamics and body temperature (maintained at 38±1° C.). Cardiac output (CO) was measured in triplicate and averaged (model 9510-A, American Edwards Laboratories, Irvine, Calif.). Hemodynamic data were digitally recorded and analyzed (Sonometrics Corporation, London, ON). The left kidney was exposed via a flank incision. The ureter was cannulated for timed urine collection. An electromagnetic flow probe was placed on the renal artery for measuring renal blood flow (Burnett et al., Am. J. Physiol., 247(5 Pt 2):F863-6 (1984)). A weight-adjusted bolus of inulin was given, followed by an inulin infusion (1 mL/minute) to achieve plasma levels of 40-60 mg/dL (Burnett et al., Am. J. Physiol., 247(5 Pt 2):F863-6 (1984); Chen et al., Am. J. Physiol. Regul. Integr. Comp. Physiol., 288(5):R1093-7 (2005); and Margulies et al., J. Clin. Invest., 88(5):1636-42 (1991)), for measuring GFR by inulin clearance. Normal saline was infused (1 mL/minute) and was temporarily discontinued during peptide infusion (1 mL/minute).
# Following equilibration of approximately 60 minutes in duration, the BAA-NP or BUA-NP polypeptide was infused for 75 minutes. Hemodynamic and renal data, as well as blood and urine samples, were collected for each 30-minute clearance: pre-infusion, at 30 and 60 minutes of infusion (time denotes mid-clearance). Inulin clearance was used for measuring glomerular filtration rate (GFR). The lithium clearance technique was used for quantifying proximal and distal fractional reabsorption of Na^+ (PFRNa and DFRNa, respectively).
# Plasma and urinary ANP, CNP, and cGMP were measured by radioimmunoassays (RIA) (Chen et al., Am. J. Physiol. Regul. Integr. Comp. Physiol., 288(5):R1093-7 (2005); Burnett et al., Science, 231(4742):1145-7 (1986); Steiner et al., J. Biol. Chem., 247(4):1106-13 (1972); Supaporn et al., Kidney Int., 50(5):1718-25 (1996); and Cataliotti et al., Am. J. Physiol., 283(3):F464-72 (2002)). Plasma renin activity (Haber et al., J. Clin. Endocrinol. Metab., 29(10):1349-55 (1969)), angiotensin II (Luchner et al., Hypertension, 28(3):472-7 (1996)), and aldosterone (Sancho and Haber, J. Clin. Endocrinol. Metab., 47(2):391-6 (1978)) were quantified. Plasma and urinary lithium levels were measured by flame emission spectrophotometry (model 357, Instrumentation Laboratory, Wilmington, Mass.) (Margulies et al., J. Clin. Invest., 88(5):1636-42 (1991)). The lithium clearance technique (CLLi) was used to assess PFRNa and DFRNa as follows (Chen et al., Am. J. Physiol. Regul. Integr. Comp. Physiol., 288(5):R1093-7 (2005)): PFRNa=[1−(CLLi/GFR)]×100 and DFRNa=[(CLLi−CLNa)/CLLi]×100, where CLLi=[urine Li^+]×urine flow/[plasma Li^+] and CLNa=[urine Na^+]×urine flow/[plasma Na^+]. Net renal production of cGMP was determined (Margulies et al., J. Clin. Invest., 88(5):1636-42 (1991)): (urinary cGMP×urine flow rate)−(plasma cGMP×GFR). […]
# [1] = anesthetized dogs, i.v. infusion
# [2] = anesthetized dogs, i.v. infusion, vs. pre-infusion
# [3] = anesthetized dogs, i.v. infusion, lithium clearance technique, vs. pre-infusion
# [4] = at 30 minutes of infusion, BNP compared to BAA-NP or BUA-NP, equimolar dose
# [5] = at 60 minutes of infusion, BNP compared to BAA-NP or BUA-NP, equimolar dose
Substance,net renal generation of cGMP [1],plasma cGMP [1],urinary cGMP excretion [1],urinary sodium excretion [1],urine flow [1],plasma ANP immunoreactivity [2],plasma CNP immunoreactivity [2],glomerular filtration rate [2],distal fractional reabsorption of sodium [3],proximal fractional reabsorption of sodium [3],cardiac output [2],hematocrit (hemoconcentration) [2],pulmonary arterial pressure [2],pulmonary capillary pressure [2],renal blood flow [2],renal vascular resistance [2],right atrial pressure [2],mean arterial pressure [2],change in renal perfusion pressure from baseline [4],change in renal perfusion pressure from baseline [5],also measured
"SLRRSSCFGRKMDRISSSSG-LGCNSFRY (SLRRSSCFGRKMDRISSSSGLGCNSFRY) [BAA-NP, 28-residue chimeric natriuretic polypeptide: human ANP residues 1-6, human mature BNP residues 10-26, human ANP residues 24-28]",significantly increased,significantly increased,significantly increased,significantly increased,significantly increased,significantly increased,significantly increased,preserved,significantly reduced,significantly reduced,preserved,significant increase,significantly reduced,significantly reduced,significantly enhanced,significantly reduced,significantly reduced,mild decrease,preserved,preserved,plasma aldosterone [2]: significantly suppressed; plasma angiotensin II [2]: significantly suppressed; plasma renin activity [2]: significantly suppressed; urinary excretion of ANP [2]: significantly increased; urinary excretion of CNP [2]: significantly increased; urinary potassium excretion [2]: significantly increased
"TAPRSLRRSSCFGRKMDRIS-SSSGLGCNSFRY (TAPRSLRRSSCFGRKMDRISSSSGLGCNSFRY) [BUA-NP, 32-residue chimeric natriuretic polypeptide: human urodilatin residues 1-10, human mature BNP residues 10-26, ANP C-terminus]",significantly increased,significantly increased,significantly increased,significantly increased,significantly increased,significantly increased,significantly increased,preserved,significantly reduced,significantly reduced,preserved,significant increase,significantly reduced,significantly reduced,significantly enhanced,significantly reduced,significantly reduced,mild decrease,preserved,preserved,activation of cGMP (BUA-NP compared with BAA-NP): greater activation; distal fractional reabsorption of sodium (BUA-NP compared with BAA-NP): greater reductions; natriuresis and diuresis (BUA-NP compared with BAA-NP): enhanced; proximal fractional reabsorption of sodium (BUA-NP compared with BAA-NP): greater reductions; renal perfusion pressure [2]: preserved; urinary potassium excretion [2]: significantly increased
"human BNP: human BNP natriuretic polypeptide, comparator infused at equimolar dose [reference compound]",,,,,,,,,,,,,,,,,,significantly reduced,significantly greater decreases,significantly greater decreases,"renal perfusion pressure [2]: significantly reduced; change in mean arterial pressure from baseline [4]: significantly greater reduction; change in mean arterial pressure from baseline (at 60 minutes of infusion, BNP versus BAA-NP): greater decrease"
